Values joined by “and” are separate entries in the source; they are usually repeats but may differ in a detail not shown here. Equal values may be shown once.
Columns and labels:
[1] = test system: Clostridium difficile strains; assay: Susceptibility testing (MIC) by two-fold serial agar dilution, Wilkins-Chalgren Anaerobe agar, anaerobic; type: cell-based
Description: Susceptibility testing for Clostridium difficile strains was performed by two-fold serial antibiotic dilutions in Wilkins-Chalgren Anaerobe agar under anaerobic conditions. Vancomycin was included as a comparator drug. C. difficile cultures were inoculated onto pre-reduced Braziers (C.C.E.Y.) agar plates and grown at 37° C. for 48 hours under anaerobic conditions. Two to three colonies of the 48 hours cultures were inoculated into 5 ml of pre-reduced Schaedlers Broth and grown at 37° C. for 24 hours under anaerobic conditions. This culture was diluted with pre-reduced 0.9% NaCl to achieve the turbidity of the 0.5 McFarland standard and applied to the drug containing plates at a final inoculum of 10^5 cfu/spot. Drug-free growth control plates were included. The plates were incubated in the anaerobic chamber at 37° C. for 48 hours and examined for growth.

C. difficile strain 4013 = assay: Hamster model of C. difficile associated cecitis (clindamycin induced); type: in vivo; conditions: three times daily at 10 mg/kg/day, 5-day dosing period, groups of 6
Description: The in vivo efficacy of the compounds of the invention in the treatment of C. difficile infections was evaluated in the standard animal model for CDAD, clindamycin induced cecitis in the hamster.
Groups of 6 animals were dosed with approximately 10^7 cells of C. difficile strain 4013 and 24 hours later with a subcutaneous dose of 10 mg/kg clindamycin phosphate. After a further 24 hours, the groups were then treated either with vehicle, vancomycin or with the compound of Example 1 three times daily at 10 mg/kg/day.

[2] = Stability to enzymatic digestion in simulated intestinal fluid (SIF); type: in vitro ADME; conditions: 37° C., HPLC quantification (FIG. 1)
Description: Nisin and the compound of Example 1 were tested for their susceptibility towards enzymatic digestion in the intestine using a simulated intestinal fluid (SIF). The SIF was based on the standard USP solutions for simulated intestinal fluids and its activity was confirmed against Bovine Serum Albumin (Hilger et al, Clin. Exp. Immunol. 2001, 123, 387-94). The compounds were incubated in SIF at 37° C. and their concentrations quantified by analytical HPLC (UV detection at 210 nm using the conditions outline in Table 1).

[3] = Tolerability in the Syrian hamster; type: in vivo; conditions: 50 mg/kg/day orally
[4] = 7-day toxicity experiment in a rat model; type: in vivo
Description: The compound of Example 1 was tested in a 7-day toxicity experiment in a rat model. One study used 50 mg/kg/day of material administered intravenously for 7 days. The other study used 200 mg/kg/day of material administered orally for 7 days.

[5] = 50 mg/kg/day intravenously for 7 days
[6] = 200 mg/kg/day orally for 7 days

Compound: CCC(C)[C@@H]1NC(=O)[C@@H]2NC(=O)[C@H](CC(C)C)NC(=O)[C@H](NC(=O)C3CSC[C@H](N)C(=O)N[C@@H](CO)C(=O)NCC(=O)N[C@@H](Cc4c[nH]c5ccccc45)C(=O)N[C@@H](C(C)C)C(=O)N3)[C@H](C)SC[C@H](NC(=O)[C@H](CCC(=O)O)NC1=O)C(=O)NCC(=O)N[C@@H]1C(=O)N[C@@H](CC(C)C)C(=O)N[C@@H](C(C)C)C(=O)N[C@@H](CS[C@H]2C)C(=O)N[C@@H](C)C(=O)N[C@H](C(=O)NCCCCCCCN)CS[C@H]1C (some centres unmarked) [Example 1, Deoxyactagardine B (7-amino-1-heptylamide monocarboxamide)]
- MIC ([1]; C. diff strain 027Can, listed as Eg 1): 0.5, 0.5 μg/ml and 1, 1 μg/ml and 1 μg/ml and 0.5 μg/ml
- MIC ([1]; C. diff strain 027SM): 1, 1 μg/ml
- MIC ([1]; C. diff strain 630, listed as Eg 1): 0.5, 0.5 μg/ml and 0.5 μg/ml and 1 μg/ml and 1, 1 μg/ml
- MIC ([1]; C. diff strain 19126, listed as Eg 1): 1, 1 μg/ml and 0.5 μg/ml and 1 μg/ml
- MIC ([1]; C. diff strain 37779, listed as Eg 1): 1, 1 μg/ml and 1 μg/ml and 0.5 μg/ml
- MIC ([1]; C. diff strain B32): 1, 1 μg/ml
- MIC ([1]; C. diff strain E16, listed as Eg 1): 1 µg/mL and 2 µg/mL
- MIC ([1]; C. diff strain E101): 1, 1 μg/ml
- MIC ([1]; C. diff strain P24): 1, 1 μg/ml
- MIC ([1]; C. diff strain P62, listed as Eg 1): 2 µg/mL and 1 µg/mL
- activity (MIC) ([1]; against many common strains of C. difficile): ≤ 1 µg/mL
- survival (C. difficile strain 4013): survived for the duration of the entire 5-day dosing period
- stability in SIF [2]: essentially stable
- tolerability [3]: tolerated without obvious signs of toxicity
- necropsy [4, 5]: no organ damage
- toxicological effects [4, 5]: No significant toxicological effects
- necropsy [4, 6]: no organ damage
- toxicological effects [4, 6]: No significant toxicological effects

Compound: CN[C@H](CC(C)C)C(=O)N[C@H]1C(=O)N[C@@H](CC(N)=O)C(=O)N[C@H]2C(=O)N[C@H]3C(=O)N[C@H](C(=O)N[C@H](C(=O)O)c4cc(O)cc(O)c4-c4cc3ccc4O)[C@H](O)c3ccc(c(Cl)c3)Oc3cc2cc(c3O[C@@H]2O[C@H](CO)[C@@H](O)[C@H](O)[C@H]2O[C@H]2C[C@](C)(N)[C@H](O)[C@H](C)O2)Oc2ccc(cc2Cl)[C@H]1O [vancomycin, reference compound]
- survival (C. difficile strain 4013): survived for the duration of the entire 5-day dosing period

Compound: Deoxyactagardine B (3-amino-1-propylamide monocarboxamide) [Example 5]
- MIC ([1]; C. diff strain 027SM): 2, 2 μg/ml
- MIC ([1]; C. diff strain 630, listed as Eg 5): 1, 1 μg/ml and 2, 2 μg/ml
- MIC ([1]; C. diff strain 19126, listed as Eg 5): 2, 2 μg/ml and 1, 1 μg/ml
- MIC ([1]; C. diff strain 37779, listed as Eg 5): 1, 1 μg/ml and 2, 2 μg/ml
- MIC ([1]; C. diff strain B32): 2, 2 μg/ml
- MIC ([1]; C. diff strain E16, listed as Eg 5): 1 µg/mL and 2 µg/mL
- MIC ([1]; C. diff strain E101): 2, 2 μg/ml
- MIC ([1]; C. diff strain P24): 2, 2 μg/ml
- MIC ([1]; C. diff strain P62): 2, 2 μg/ml

Compound: Deoxyactagardine B (12-amino-1-dodecylamide monocarboxamide) [Example 8]
- MIC ([1]; C. diff strain 027Can): 1, 1 μg/ml
- MIC ([1]; C. diff strain 027SM): 2, 2 μg/ml
- MIC ([1]; C. diff strain 630, listed as Eg8): 0.5, 0.5 μg/ml and 1, 1 μg/ml
- MIC ([1]; C. diff strain 19126, listed as Eg8): 1, 1 μg/ml and 2, 2 μg/ml
- MIC ([1]; C. diff strain 37779, listed as Eg8): 1, 1 μg/ml and 1 μg/ml and 2 μg/ml
- MIC ([1]; C. diff strain B32, listed as Eg8): 2 µg/mL and 1 µg/mL
- MIC ([1]; C. diff strain E16): 2, 2 μg/ml
- MIC ([1]; C. diff strain E101): 2, 2 μg/ml
- MIC ([1]; C. diff strain P24, listed as Eg8): 2 µg/mL and 1 µg/mL
- MIC ([1]; C. diff strain P62): 2, 2 μg/ml

Source: US8741945B2, “Compounds” (Novacta Biosystems Limited, priority 2009, dated 2014)
